For 39 molecules, IC50 results are on record in US10485800B2, “Mixed lineage kinase inhibitors for HIV/AIDS therapies” (UNIVERSITY OF ROCHESTER, priority 2012, dated 2019).

Broadly, the IC50 is the concentration needed to halve the response being measured.

For this test, the target named is MLK3 (Homo sapiens (Human), UniProt Q16584). Description: Radiometric filter plate MLK3 assay. In kind it is biochemical. The settings on record: 2 μM cold ATP (Km), 1 μM inactive MKK7b, twenty minute incubation; read-out: MK3 IC50. As to the method: After a twenty minute incubation, the reactions were washed through filter plates and read on a scintillation counter. Results are shown in Table 9 below, in which +++ indicates ≤0.1 μM, ++ indicates >0.1 μM and ≤1 μM, and + indicates >1 μM.
MLK3, sequence (Q16584 whole entry): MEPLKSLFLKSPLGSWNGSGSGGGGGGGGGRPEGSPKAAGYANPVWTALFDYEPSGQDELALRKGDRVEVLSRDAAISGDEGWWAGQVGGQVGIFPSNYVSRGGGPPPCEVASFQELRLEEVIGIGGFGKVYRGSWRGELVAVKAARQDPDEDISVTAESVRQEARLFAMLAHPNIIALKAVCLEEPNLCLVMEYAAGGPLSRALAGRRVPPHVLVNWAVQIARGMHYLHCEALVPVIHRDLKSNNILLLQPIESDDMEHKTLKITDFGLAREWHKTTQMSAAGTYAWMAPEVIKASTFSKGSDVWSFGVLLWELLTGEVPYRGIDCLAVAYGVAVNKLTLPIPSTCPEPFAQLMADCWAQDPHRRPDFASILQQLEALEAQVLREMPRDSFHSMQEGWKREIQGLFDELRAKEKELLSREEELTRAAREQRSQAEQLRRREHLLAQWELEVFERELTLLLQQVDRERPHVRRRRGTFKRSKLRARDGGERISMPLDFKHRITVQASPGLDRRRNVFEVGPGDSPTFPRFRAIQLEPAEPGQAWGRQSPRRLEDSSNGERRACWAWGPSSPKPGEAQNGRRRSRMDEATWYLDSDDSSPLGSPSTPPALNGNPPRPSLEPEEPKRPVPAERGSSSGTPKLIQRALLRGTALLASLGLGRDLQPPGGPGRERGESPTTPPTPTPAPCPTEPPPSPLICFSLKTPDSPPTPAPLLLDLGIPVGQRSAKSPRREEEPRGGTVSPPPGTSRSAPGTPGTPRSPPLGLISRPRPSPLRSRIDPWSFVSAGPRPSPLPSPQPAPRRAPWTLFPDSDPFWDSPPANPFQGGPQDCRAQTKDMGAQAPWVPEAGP
Take `CC(=O)Nc1ccc(-c2cnc3[nH]cc(-c4ccc5[nH]ccc5c4)c3c2)cc1` [Example 3, N-(4-(3-(1H-indol-5-yl)-1H-pyrrolo[2,3-b]pyridin-5-yl)phenyl)acetamide]: the IC50 was under 0.1 µM.

In the case of `COc1cc(-c2cnc3[nH]cc(-c4ccc5[nH]ccc5c4)c3c2)ccc1N` [Example 5, 4-(3-(1H-indol-5-yl)-1H-pyrrolo[2,3-b]pyridin-5-yl)-2-methoxyaniline], the IC50 was under 0.1 µM. The result for `CN1CCN(c2cc(-c3cnc4[nH]cc(-c5ccc6[nH]ccc6c5)c4c3)ccn2)CC1` [Example 7, 3-(1H-indol-5-yl)-5-(2-(4-methylpiperazin-1-yl)pyridin-4-yl)-1H-pyrrolo[2,3-b]pyridine] reads under 0.1 µM.

As to `Nc1ccc(-c2cnc3[nH]cc(-c4ccc5[nH]ccc5c4)c3c2)cc1` [Example 8, 4-(3-(1H-indol-5-yl)-1H-pyrrolo[2,3-b]pyridin-5-yl)aniline], the IC50 was under 0.1 µM. For `CS(=O)(=O)Nc1ccc(-c2cnc3[nH]cc(-c4ccc5[nH]ccc5c4)c3c2)cc1` [Example 11, N-(4-(3-(1H-indol-5-yl)-1H-pyrrolo[2,3-b]pyridin-5-yl)phenyl)methanesulfonamide], the IC50 is under 0.1 µM. As for `COc1cc(-c2cnc3[nH]cc(-c4ccc(N)cc4)c3c2)cc(OC)c1OC` [Example 15, 4-(5-(3,4,5-trimethoxyphenyl)-1H-pyrrolo[2,3-b]pyridin-3-yl)aniline], the figure is under 0.1 µM; as for `COc1cc(-c2cnc3[nH]cc(-c4ccc(NC(C)=O)cc4)c3c2)cc(OC)c1OC` [Example 16, N-(4-(5-(3,4,5-trimethoxyphenyl)-1H-pyrrolo[2,3-b]pyridin-3-yl)phenyl)acetamide], under 0.1 µM; as for `COc1cc(-c2cnc3[nH]cc(-c4ccc(N(C)C)nc4)c3c2)cc(OC)c1OC` [Example 19, N,N-dimethyl-5-(5-(3,4,5-trimethoxyphenyl)-1H-pyrrolo[2,3-b]pyridin-3-yl)pyridin-2-amine], under 0.1 µM.

In the case of `Nc1ncc(-c2cnc3[nH]cc(-c4cnc(N)nc4)c3c2)cn1` [Example 20, 5,5′-(1H-pyrrolo[2,3-b]pyridine-3,5-diyl)dipyrimidin-2-amine], the IC50 was over 1 µM.

Take `CN(C)c1ccc(-c2cnc3[nH]cc(-c4ccc(F)c(Cl)c4)c3c2)cn1` [Example 22, 5-(3-(3-chloro-4-fluorophenyl)-1H-pyrrolo[2,3-b]pyridin-5-yl)-N,N-dimethylpyridin-2-amine]: the IC50 was over 1 µM.

`COc1cc(-c2cnc3[nH]cc(-c4ccc5c(ccn5C)c4)c3c2)cc(OC)c1OC` [Example 24, 3-(1-methyl-1H-indol-5-yl)-5-(3,4,5-trimethoxyphenyl)-1H-pyrrolo[2,3-b]pyridine]: the IC50 was under 0.1 µM. The result for `COc1cc(-c2cnc3[nH]cc(-c4ccc(C(N)=O)cc4)c3c2)cc(OC)c1OC` [Example 25, 4-(5-(3,4,5-trimethoxyphenyl)-1H-pyrrolo[2,3-b]pyridin-3-yl)benzamide] reads under 0.1 µM; that for `COc1ccc(-c2cnc3[nH]cc(-c4ccc(C(N)=O)cc4)c3c2)cc1OC` [Example 26, 4-(5-(3,4-dimethoxyphenyl)-1H-pyrrolo[2,3-b]pyridin-3-yl)benzamide], under 0.1 µM. The result for `Nc1ccc(-c2cnc3[nH]cc(-c4ccc(F)c(Cl)c4)c3c2)cn1` [Example 29, 5-(3-(3-chloro-4-fluorophenyl)-1H-pyrrolo[2,3-b]pyridin-5-yl)pyridin-2-amine] reads over 1 µM; that for `CN(C)Cc1ccc(-c2cnc3[nH]cc(-c4ccc5[nH]ccc5c4)c3c2)cc1` [Example 33, 1-(4-(3-(1H-indol-5-yl)-1H-pyrrolo[2,3-b]pyridin-5-yl)phenyl)-N,N-dimethylmethanamine], under 0.1 µM. The result for `COc1cc(-c2cnc3[nH]cc(-c4ccc5[nH]ccc5c4)c3c2)ccc1OCCN1CCNCC1` [Example 34, 3-(1H-indol-5-yl)-5-(3-methoxy-4-(2-(piperazin-1-yl)ethoxy)phenyl)-1H-pyrrolo[2,3-b]pyridine] reads under 0.1 µM. On to `COc1cc(-c2cnc3[nH]cc(-c4ccc5[nH]ccc5c4)c3c2)ccc1OCCN(C)C` [Example 35, 2-(4-(3-(1H-indol-5-yl)-1H-pyrrolo[2,3-b]pyridin-5-yl)-2-methoxyphenoxy)-N,N-dimethylethanamine], for which the IC50 is over 1 µM. In the case of `COc1ccc(-c2cnc3[nH]cc(-c4ccc5[nH]ccc5c4)c3n2)cc1OC` [Example 37, 2-(3,4-dimethoxyphenyl)-7-(1H-indol-5-yl)-5H-pyrrolo[3,2-b]pyrazine], the IC50 is under 0.1 µM. The result for `COc1cc(-c2cnc3[nH]cc(-c4ccc5[nH]ccc5c4)c3n2)ccc1N` [Example 38, 4-(7-(1H-indol-5-yl)-5H-pyrrolo[3,2-b]pyrazin-2-yl)-2-methoxyaniline] reads under 0.1 µM; that for `COc1cc(-c2cnc3[nH]cc(-c4ccc5[nH]ccc5c4)c3n2)ccc1OCCN1CCOCC1` [Example 39, 4-(2-(4-(7-(1H-indol-5-yl)-5H-pyrrolo[3,2-b]pyrazin-2-yl)-2-methoxyphenoxy)ethyl)morpholine], under 0.1 µM. As for `COc1cc(-c2cnc3[nH]c(=O)n(-c4ccc5[nH]ccc5c4)c3n2)cc(OC)c1OC` [Example 40, 1-(1H-indol-5-yl)-6-(3,4,5-trimethoxyphenyl)-1H-imidazo[4,5-b]pyrazin-2(3H)-one], the figure is under 0.1 µM; as for `Cn1ccc2cc(-n3c(=O)[nH]c4ncc(-c5ccc(O)cc5)nc43)ccc21` [Example 42, 6-(4-hydroxyphenyl)-1-(1-methyl-1H-indol-5-yl)-1H-imidazo[4,5-b]pyrazin-2(3H)-one], over 1 µM. Turning to `Cc1cc(C)cc(-c2cnc3[nH]c(=O)n(-c4ccc5c(ccn5C)c4)c3n2)c1` [Example 43, 6-(3,5-dimethylphenyl)-1-(1-methyl-1H-indol-5-yl)-1H-imidazo[4,5-b]pyrazin-2(3H)-one], the IC50 was over 1 µM. As for `O=c1[nH]c2ncc(-c3ccncc3)nc2n1-c1ccc2[nH]ccc2c1` [Example 44, 1-(1H-indol-5-yl)-6-(pyridin-4-yl)-1H-imidazo[4,5-b]pyrazin-2(3H)-one], the figure is over 1 µM. The result for `Cc1cc(C)cc(-c2cnc3[nH]c(=O)n(-c4ccc5[nH]ccc5c4)c3n2)c1` [Example 46, 6-(3,5-dimethylphenyl)-1-(1H-indol-5-yl)-1H-imidazo[4,5-b]pyrazin-2(3H)-one] reads over 1 µM; that for `O=c1[nH]c2ncc(-c3cc(Cl)cc(Cl)c3)nc2n1-c1ccc2[nH]ccc2c1` [Example 48, 6-(3,5-dichlorophenyl)-1-(1H-indol-5-yl)-1H-imidazo[4,5-b]pyrazin-2(3H)-one], over 1 µM. As for `COc1ccc(-c2cnc3[nH]c(=O)n(-c4ccc5[nH]ccc5c4)c3n2)cc1F` [Example 49, 6-(3-fluoro-4-methoxyphenyl)-1-(1H-indol-5-yl)-1H-imidazo[4,5-b]pyrazin-2(3H)-one], the figure is over 1 µM; as for `COc1cc(-c2cnc3[nH]c(=O)n(-c4ccc5[nH]ccc5c4)c3n2)ccc1O` [Example 55, 6-(4-hydroxy-3-methoxyphenyl)-1-(1H-indol-5-yl)-1H-imidazo[4,5-b]pyrazin-2(3H)-one], under 0.1 µM; as for `O=c1[nH]c2ncc(-c3ccc4cc[nH]c4c3)nc2n1-c1ccc2[nH]ccc2c1` [Example 56, 1-(1H-indol-5-yl)-6-(1H-indol-6-yl)-1H-imidazo[4,5-b]pyrazin-2(3H)-one], over 1 µM.

For the molecule `COc1cc(-c2cnc3[nH]c(=O)n(-c4ccc5[nH]ccc5c4)c3n2)ccc1OCCN1CCOCC1` [Example 57, 1-(1H-indol-5-yl)-6-(3-methoxy-4-(2-morpholinoethoxy)phenyl)-1H-imidazo[4,5-b]pyrazin-2(3H)-one], the IC50 is under 0.1 µM. As to `O=c1[nH]c2ncc(-c3cc(F)c(O)c(F)c3)nc2n1-c1ccc2[nH]ccc2c1` [Example 59, 6-(3,5-difluoro-4-hydroxyphenyl)-1-(1H-indol-5-yl)-1H-imidazo[4,5-b]pyrazin-2(3H)-one], the IC50 is under 0.1 µM. As for `COc1cc(-c2cnc3[nH]c(=O)n(-c4ccc5[nH]ccc5c4)c3n2)ccc1N` [Example 60, 6-(4-amino-3-methoxyphenyl)-1-(1H-indol-5-yl)-1H-imidazo[4,5-b]pyrazin-2(3H)-one], the figure is under 0.1 µM; as for `O=c1[nH]c2ncc(-c3cc(F)cc(F)c3)nc2n1-c1ccc2[nH]ccc2c1` [Example 61, 6-(3,5-difluorophenyl)-1-(1H-indol-5-yl)-1H-imidazo[4,5-b]pyrazin-2(3H)-one], over 1 µM; as for `COc1cc(-c2cnc3[nH]c(=O)n(-c4ccc5[nH]ccc5c4)c3n2)cc(OC)c1O` [Example 62, 6-(4-hydroxy-3,5-dimethoxyphenyl)-1-(1H-indol-5-yl)-1H-imidazo[4,5-b]pyrazin-2(3H)-one], under 0.1 µM. As for `COc1cc(OC)cc(-c2cnc3[nH]c(=O)n(-c4ccc5[nH]ccc5c4)c3n2)c1` [Example 65, 6-(3,5-dimethoxyphenyl)-1-(1H-indol-5-yl)-1H-imidazo[4,5-b]pyrazin-2(3H)-one], the IC50 was over 1 µM. As to `CN1CCN(c2cc(-c3cnc4[nH]c(=O)n(-c5ccc6[nH]ccc6c5)c4n3)ccn2)CC1` [Example 66, 1-(1H-indol-5-yl)-6-(2-(4-methylpiperazin-1-yl)pyridin-4-yl)-1H-imidazo[4,5-b]pyrazin-2(3H)-one], the IC50 was over 1 µM. With `COc1ccc(-n2c(=O)[nH]c3ncc(-c4ccc(OC)c(OC)c4)nc32)cc1` [Example 69, 6-(3,4-dimethoxyphenyl)-1-(4-methoxyphenyl)-1H-imidazo[4,5-b]pyrazin-2(3H)-one], the IC50 was over 1 µM. The result for `COc1ccc(-n2c(=O)[nH]c3ncc(-c4ccc(O)cc4)nc32)cc1` [Example 70, 6-(4-hydroxyphenyl)-1-(4-methoxyphenyl)-1H-imidazo[4,5-b]pyrazin-2(3H)-one] reads over 1 µM.

On to `COc1ccc(-n2c(=O)[nH]c3ncc(-c4ccncc4)nc32)cc1` [Example 71, 1-(4-methoxyphenyl)-6-(pyridin-4-yl)-1H-imidazo[4,5-b]pyrazin-2(3H)-one], for which the IC50 was over 1 µM.
